Source: patent US6809110B2 (Hoffmann-La Roche Inc., priority 2002, dated 2004)

Assays:
[1] = target: T1, PPARγ (Mus musculus, UniProt P37238); experiment: PPARγ radioligand binding assay (SPA, GST-PPARγ-LBD fusion protein); set-up: PPARγ (aa 174 to 476); details: SPA beads
T1 sequence (P37238 204-505): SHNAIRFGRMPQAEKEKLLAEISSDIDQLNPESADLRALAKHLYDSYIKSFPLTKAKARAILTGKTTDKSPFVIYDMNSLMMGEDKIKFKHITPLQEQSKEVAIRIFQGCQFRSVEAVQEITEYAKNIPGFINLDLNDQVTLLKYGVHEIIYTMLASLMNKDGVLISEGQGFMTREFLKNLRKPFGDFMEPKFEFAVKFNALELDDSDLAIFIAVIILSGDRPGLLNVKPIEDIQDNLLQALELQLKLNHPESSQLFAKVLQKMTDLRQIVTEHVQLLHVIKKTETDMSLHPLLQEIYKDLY
Description: (§1) Full-length cDNA clones for human PPARα and mouse PPARγ were obtained by RT-PCR from human adipose and mouse liver cRNA, respectively, cloned into plasmid vectors and verified by DNA sequencing. (With respect to cloning of PPARα cDNA, see Sher, T. et al. “cDNA doning, chromosomel mapping and functional characterization of the human peroxisome proliferator activated receptor”, Biochemistry 32(21) 5598-5604 (1993); with respect to cloning of PPARγ2 cDNA, see Tontonoy P., et al. “mPPAR gamma 2: tissue-specific regulator of an adipocyte enhancer”, Genes Dev. 8(10) 1224-34 (1994).) Bacterial and mammalian expression vectors were constructed to produce glutathione-s-transferase (GST) and Gal4 DNA binding domain proteins fused to the ligand binding domains (LBD) of PPARγ (aa 174 to 476) and PPARα (aa 167 to 469). To accomplish this, the portions of the cloned sequences encoding the LBDs were amplified from the full-length clones by PCR and then subcloned into the plasmid vectors. Final clones were verified by DNA sequence analysis.
(§2) Induction, expression, and purification of GST-LBD fusion proteins were performed in E. coli strain BL21(pLysS) cells by standard methods (Ref: Current Protocols in Molecular Biology, Wiley Press, edited by Ausubel et al.).
(§3) PPARγ receptor binding was assayed in TKE50 (50 mM Tris-HCl, pH 8, 50 mM KCl, 2 mM EDTA, 0.1 mg/ml fatty acid-free BSA and 10 mM DTT). For each 96 well reaction an 140 ng equivalent of GST-PPARγ-LBD fusion protein was bound to 10 ug SPA beads (PharmaciaArnersham) in a final volume of 50 ul by shaking. The resulting slurry was incubated for 1 h at RT and centrifuged for 2 min at 1300 g. The supernatant containing unbound protein was removed and the semidry pellet containing the recptor-coated beads was resolved in 50 ul of TKE. For radioligand binding e.g. 10000 dpm 2(S)-(2-benzoyl-phenylamino)-3-{4-[1,1-ditritio-2-(5-methyl-2-phenyl-oxazol-4-yl)-ethoxy]-phenyl}-propionic acid in 50 ul were added, the reaction incubated at RT for 1 h and scintillation proximity counting performed. All binding assays were performed in 96 well plates and the amount of bound ligand measured on a Packard TopCount using OptiPlates (Packard). Nonspecific binding was determined in the presence of 10^−4 M unlabelled compound. Dose response curves were done in triplicates within a range of concentration from 10^−10 M to 10^−4 M.

[2] = target: T2, PPARα (Homo sapiens, UniProt Q07869); experiment: Luciferase transcriptional reporter gene assay, BHK21 cells transfected with pFA-PPARα-LBD; type: cell-based; set-up: PPARα (aa 167 to 469); details: 24 hours incubation
T2 sequence (Q07869 167-468 limits assumed): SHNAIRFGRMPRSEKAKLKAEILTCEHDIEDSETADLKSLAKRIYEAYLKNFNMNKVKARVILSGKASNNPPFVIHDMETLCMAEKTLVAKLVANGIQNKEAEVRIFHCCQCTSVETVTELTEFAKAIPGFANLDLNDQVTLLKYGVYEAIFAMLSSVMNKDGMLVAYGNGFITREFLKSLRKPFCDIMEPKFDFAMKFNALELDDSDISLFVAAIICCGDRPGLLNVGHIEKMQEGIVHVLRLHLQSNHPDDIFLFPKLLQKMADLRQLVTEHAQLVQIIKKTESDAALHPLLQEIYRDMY
Experimental: (§4) Full-length cDNA clones for human PPARα and mouse PPARγ were obtained by RT-PCR from human adipose and mouse liver cRNA, respectively, cloned into plasmid vectors and verified by DNA sequencing. […] To accomplish this, the portions of the cloned sequences encoding the LBDs were amplified from the full-length clones by PCR and then subcloned into the plasmid vectors. Final clones were verified by DNA sequence analysis.
(§5) Baby hamster kidney cells (BHK21 ATCC CCL10) were grown in DMEM medium containing 10% FBS at 37° C. in a 95%02:5%CO2 atmosphere. Cells were seeded in 6 well plates at a density of 10^5 Cells/well and then batch-transfected with either the pPA-PPARγ-LBD or pFA-PPARα-LBD expression plasmids plus a reporter plasmid and an expression plasmid encoding the secretable form of alkaline phosphatase (SEAP) as a normalization control. […] Six hours following transfection, the cells were harvested by trypsinization and seeded in 96 well plates at a density of 10^4 cells/well. After 24 hours to allow attachment of cells, the medium was removed and replaced with 100 ul of phenol red-free medium containing the test substances or control ligands (final DMSO concentration: 0.1%). Following incubation of the cells for 24 hours with substances, 50 ul of the supernatant was recovered and analyzed for SEAP activity (Roche Molecular Biochemicals). The remainder of the supernatant was discarded, 50 ul PBS was added per well followed by one volume of Luciferase Constant-Light Reagent (Roche Molecular Biochemicals) to lyse the cells and initiate the luciferase reaction. Luminescence for both SEAP and luciferase was measured in a Packard TopCount. Luciferase activity was normalized to the SEAP control and transcriptional activation in the presence of a test substance was expressed as fold-activation over cells incubated in the absence of the substance. EC50 values were calculated using the XLfit program (ID Business Solutions Ltd. UK).

[3] = target: T2, PPARα; experiment: PPARα radioligand binding assay (SPA, GST-PPARα-LBD fusion protein); set-up: PPARγ (aa 174 to 476) and PPARα (aa 167 to 469); made in house; host or cells: E. coli BL21(pLysS); details: SPA beads
Description: as §4, §2
as §3, with “PPARα receptor” for “PPARγ receptor”, “reaction a” for “reaction an”, “of GST-PPARα-LBD” for “of GST-PPARγ-LBD”, “beads (PharmaciaAmersham)” for “beads (PharmaciaArnersham)”, “dpm of” for “dpm”, “2(S)-(2-benzoyl-phenylamino)-3-{4-[1,1-ditritio-2-(5-methyl-2-phenyl-oxazol-4-yl)-ethoxy]-phenyl}-propionic acid or 2,3-ditritio-2(S)-methoxy-3-(4-(2-(5-methyl-2-phenyl-oxazol-4-yl)-ethoxy]-benzo[b]thiophen-7-yl}-propionic” for “2(S)-(2-benzoyl-phenylamino)-3-{4-[1,1-ditritio-2-(5-methyl-2-phenyl-oxazol-4-yl)-ethoxy]-phenyl}-propionic”

[4] = target: T1, PPARγ; experiment: Luciferase transcriptional reporter gene assay, BHK21 cells transfected with PPARγ-LBD expression plasmid; type: cell-based; set-up: PPARγ (aa 174 to 476) and PPARα (aa 167 to 469); expressed in transfected cells; host or cells: BHK21 (ATCC CCL10); details: 24 hours incubation
Description: as §1, §5

[5] = target: T1, PPARγ; experiment: PPARγ radioligand binding assay (SPA, GST-PPARγ-LBD fusion protein); details: SPA beads
Description: Full-length cDNA clones for human PPARα and mouse PPARγ were obtained by RT-PCR from human adipose and mouse liver cRNA, respectively, cloned into plasmid vectors and verified by DNA sequencing. (With respect to cloning of PPARα cDNA, see Sher, T. et al. “cDNA doning, chromosomel mapping and functional characterization of the human peroxisome proliferator activated receptor”, Biochemistry 32(21) 5598-5604 (1993); with respect to cloning of PPARγ2 cDNA, see Tontonoy P., et al. “mPPAR gamma 2: tissue-specific regulator of an adipocyte enhancer”, Genes Dev. 8(10) 1224-34 (1994).) Bacterial and mammalian expression vectors were constructed to produce glutathione-s-transferase (GST) and Gal4 DNA binding domain proteins fused to the ligand binding domains (LBD) of PPARγ (aa 174 to 476) and PPARα (aa 167 to 469). To accomplish this, the portions of the cloned sequences encoding the LBDs were amplified from the full-length clones by PCR and then subcloned into the plasmid vectors. Final clones were verified by DNA sequence analysis. […]
PPARγ receptor binding was assayed in TKE50 (50 mM Tris-HCl, pH 8, 50 mM KCl, 2 mM EDTA, 0.1 mg/ml fatty acid-free BSA and 10 mM DTT). […] All binding assays were performed in 96 well plates and the amount of bound ligand measured on a Packard TopCount using OptiPlates (Packard). Nonspecific binding was determined in the presence of 10^−4 M unlabelled compound. […]

[6] = target: T2, PPARα; experiment: Luciferase transcriptional reporter gene assay, BHK21 cells transfected with pFA-PPARα-LBD; type: cell-based; details: 24 hours incubation
Experimental: as §4
Baby hamster kidney cells (BHK21 ATCC CCL10) were grown in DMEM medium containing 10% FBS at 37° C. in a 95%02:5%CO2 atmosphere. Cells were seeded in 6 well plates at a density of 10^5 Cells/well and then batch-transfected with either the pPA-PPARγ-LBD or pFA-PPARα-LBD expression plasmids plus a reporter plasmid and an expression plasmid encoding the secretable form of alkaline phosphatase (SEAP) as a normalization control. […] Following incubation of the cells for 24 hours with substances, 50 ul of the supernatant was recovered and analyzed for SEAP activity (Roche Molecular Biochemicals). […] Luminescence for both SEAP and luciferase was measured in a Packard TopCount. Luciferase activity was normalized to the SEAP control and transcriptional activation in the presence of a test substance was expressed as fold-activation over cells incubated in the absence of the substance. EC50 values were calculated using the XLfit program (ID Business Solutions Ltd. UK).

SMILES | IC50 [1] [nM] | EC50 [2] [nM] | IC50 [3] [nM] | EC50 [4] [nM] | IC50 [5] [nM] | EC50 [6] [nM]
CCOC(Cc1ccc(OCc2csc(-c3ccc(C(C)C)cc3)n2)c(C)c1)C(=O)O (racemic) [Example 5, [rac]-2-Ethoxy-3-{4-[2-(4-isopropyl-phenyl)-thiazol-4-ylmethoxy]-3-methyl-phenyl}-propionic acid] | 96 | 400 | 133 | 389 |  | 
CCOC(Cc1ccc(OCc2csc(-c3ccc(Cl)cc3)n2)cc1C)C(=O)O (racemic) [Example 14, [rac]-3-{4-[2-(4-chloro-phenyl)-thiazol-4-ylmethoxy]-2-methyl-phenyl}-2-ethoxy-propionic acid] | 457 | 77 | 109 | 608 |  | 
CCOC(Cc1ccc(OCCc2csc(-c3ccc(C(F)(F)F)cc3)n2)c(F)c1)C(=O)O (racemic) [Example 25, [rac]-2-Ethoxy-3-(3-fluoro-4-{2-[2-(4-trifluoromethyl-phenyl)-thiazol-4-yl]-ethoxy}-phenyl)-propionic acid] | 535 | 116 | 370 | 508 |  | 
CCOC(Cc1ccc(OCCCc2csc(-c3ccc(C(C)C)cc3)n2)c(F)c1)C(=O)O (racemic) [Example 43, [rac]-2-Ethoxy-3-(3-fluoro-4-{3-[2-(4-isopropyl-phenyl)-thiazol-4-yl]-propoxy}-phenyl)-propionic acid] | 52 | 2110 | 50 | 543 |  | 
CCOC(Cc1ccc(OCCc2nc(-c3ccc(OC(F)(F)F)cc3)sc2C)c(C)c1)C(=O)O (racemic) [Example 60, [rac]-2-ethoxy-3-(3-methyl-4-{2-[5-methyl-2-(4-trifluoromethoxy-phenyl)-thiazol-4-yl]-ethoxy}-phenyl)-propionic acid] | 42 | 748 | 37 | 411 |  | 
CCOC(Cc1ccc(OCCc2nc(-c3cc(OC)cc(OC)c3)sc2C)c(OC)c1)C(=O)O (racemic) [Example 64] |  |  | 95 | 281 | 84 | 513
CCOC(Cc1ccc(OCc2csc(-c3ccc(Cl)cc3)n2)c2ccoc12)C(=O)O (racemic) [Example 95] |  |  | 114 | 1580 | 925 | 54
CCOC(Cc1ccc(OCCCc2nc(-c3ccc(C(C)(C)C)cc3)sc2C)cc1C)C(=O)O (racemic) [Example 102, [rac]-3-(4-{3-[2-(4-tert-Butyl-phenyl)-5-methyl-thiazol-4-yl]-propoxy}-2-methyl-phenyl)-2-ethoxy-propionic acid] | 20 | 215 | 15 | 42 |  | 
CCO[C@@H](Cc1ccc(OCc2csc(-c3cccc(Cl)c3)n2)cc1C)C(=O)O [Example 19, (2S)-3-{4-[2-(3-Chloro-phenyl)-thiazol-4-ylmethoxy]-2-methyl-phenyl}-2-ethoxy-propionic acid] | 179 | 71 | 89 | 60 |  | 
CCO[C@@H](Cc1ccc(OCc2csc(-c3ccc(Cl)cc3)n2)cc1C)C(=O)O [Example 20, (2S)-3-{4-[2-(4-Chloro-phenyl)-thiazol-4-ylmethoxy]-2-methyl-phenyl}-2-ethoxy-propionic acid] | 738 | 27 | 24 | 209 |  | 
